Tested on: Diabrotica speciosa
Experiment: Dry bean field trials, Diabrotica speciosa damage and yield (Example 4)
Type: in vivo
Settings: 150 L water/ha, two applications 7 d apart; for % Damage, % UNCK: 28 DAB, Lambda-cyhalothrin 100 at 0.15 L/ha; for Yield: plot
Text: All applications were made with an EC formulation containing 650 g/L of pelargonic acid (e.g., 685 g/L of 95% purity pelargonic acid), an anionic emulsifier and a branched fatty acid ester solvent.
Diabrotica speciosa is a major pest in rice.
Dry Beans—Diabrotica speciosa

## CC1(C)[C@H](C(=O)O[C@H](C#N)c2cccc(Oc3ccccc3)c2)[C@@H]1/C=C(\Cl)C(F)(F)F (racemic) [Lambda-cyhalothrin 100, Lambda-cyhalothrin, reference compound]
Trial 1, dry bean
  % Damage, % UNCK: 80.55b % UNCK
  Yield: 2.55a Ton/ha
Trial 2, dry bean
  % Damage, % UNCK: 81.41c % UNCK
  Yield: 2.29ab Ton/ha
